According to patent EP0169785A1, “Use of 1,8,9-triacetoxy-anthracene as the active ingredient in the preparation of an antitumoral pharmaceutical compound” (CENTRE INTERNATIONAL DE RECHERCHES DERMATOLOGIQUES C.I.R.D. …, priority 1984, dated 1986):

Key:
[1] = Solubility (qualitative description); type: physicochemical; conditions: solvents named
[2] = test system: cellules de mélanocarcinome B 16; assay: Anti-tumour activity against intraperitoneally implanted B 16 melanocarcinoma in mice (median survival time); type: in vivo, souris; conditions: for Temps médian de survie (en jours) Animaux testés T / T/C X 100: intraperitoneal; for Temps médian de survie (en jours) Animaux testés T: daily for 9 days after tumour implantation, controls C 15,4 days; for T/C X 100: active when ratio above 125
Method: EXEMPLE 5 - Etude de l'activité anti-tumorale vis-à-vis des cellules de mélanocarcinome B 16.
Le principe du test est le suivant : On a implanté, chez la souris, par injection intrapériotonéale au jour 0, 0,5 ml d'un homogénéisat dilué (1/10) des cellules tumorales.
Le traitement consiste à administrer le produit étudié, quotidiennement, par voie intrapéritonéale, pendant les 9 jours suivant l'implantation de la tumeur.
Ou considère qu'un produit est actif, selon ce test, lorsque le rapport [formula] est supérieur à 125.

[3] = test system: cellules leucémiques lymphocytiques P 388; assay: Anti-tumour activity against intraperitoneally implanted P 388 lymphocytic leukaemia in mice (median survival time); type: in vivo, souris; conditions: for Temps médian de survie (en jours) Animaux testés T / T/C x 100: intraperitoneal; for Temps médian de survie (en jours) Animaux testés T: daily for 5 days after tumour implantation, controls C 9,9 days; for T/C x 100: active when ratio above 120
Method: EXEMPLE 4 - Etude de l'activité anti-tumorale vis-à-vis des cellules leucémiques lymphocytiques P 388.
Le principe du test est le suivant : On implante chez la souris, au jour zéro, une tumeur, par injection intrapéritonéale de 10^6 cellules tumorales dans 0,1 ml de fluide ascitique dilué. Le traitement consiste à administrer quotidiennement le produit étudié, par voie intrapéritonéale pendant les 5 jours suivant l'implantation de la tumeur.
On considère que le produit est actif selon ce test, lorsque le rapport [formula] est supérieur à 120.

Compound: CC(=O)Oc1cccc2cc3cccc(OC(C)=O)c3c(OC(C)=O)c12 [composé de formule I, triacétoxy-1,8,9 anthracène]
- solubilité [1]: soluble notamment dans les alcools et l'acétone
- Temps médian de survie (en jours) Animaux testés T ([2]; 0,75 mg/kg): 19,7 jours
- T/C X 100 ([2]; 0,75 mg/kg, daily for 9 days): 127
- Temps médian de survie (en jours) Animaux testés T ([2]; 3 mg/kg): 20 jours
- T/C X 100 ([2]; 3 mg/kg, daily for 9 days): 129
- Temps médian de survie (en jours) Animaux testés T ([2]; 1,5 mg/kg): 23 jours
- T/C X 100 ([2]; 1,5 mg/kg, daily for 9 days): 149
- dose optimale ([2]; B 16, intraperitoneal, daily for 9 days): ~1,50 mg/kg
- Temps médian de survie (en jours) Animaux testés T ([3]; 0,79 mg/kg): 12,3 jours
- T/C x 100 ([3]; 0,79 mg/kg, daily for 5 days): 124
- Temps médian de survie (en jours) Animaux testés T ([3]; 1,56 mg/kg): 13,3 jours
- T/C x 100 ([3]; 1,56 mg/kg, daily for 5 days): 134
- Temps médian de survie (en jours) Animaux testés T ([3]; 3,12 mg/kg): 13 jours
- T/C x 100 ([3]; 3,12 mg/kg, daily for 5 days): 131
- minimal effective dose ([3]; Mus musculus, P388, ip, 120 h, P 388, intraperitoneal, daily for 5 days, dose at which the compound is active (T/C x 100 above 120), read-out: actif à la dose de): ~0.8 mg/kg
- dose optimale ([3]; P 388, intraperitoneal, daily for 5 days): ~1,56 mg/kg
